Results from paper PMC9224512, “New Insights into the Determinants of Specificity in Human Type I Arginase: Generation of a Mutant That Is Only Active with Agmatine as Substrate” (International Journal of Molecular Sciences, 2022).
Numbering of substitutions follows the chain as printed.

How the values were obtained:
Type in all cases: biochemical
[1] = target: T1, human arginase type I N139D (Homo sapiens, UniProt P05089, N139D); assay: Kinetic and inhibition studies, N139D mutant
T1 sequence (P05089 1-322 N139D): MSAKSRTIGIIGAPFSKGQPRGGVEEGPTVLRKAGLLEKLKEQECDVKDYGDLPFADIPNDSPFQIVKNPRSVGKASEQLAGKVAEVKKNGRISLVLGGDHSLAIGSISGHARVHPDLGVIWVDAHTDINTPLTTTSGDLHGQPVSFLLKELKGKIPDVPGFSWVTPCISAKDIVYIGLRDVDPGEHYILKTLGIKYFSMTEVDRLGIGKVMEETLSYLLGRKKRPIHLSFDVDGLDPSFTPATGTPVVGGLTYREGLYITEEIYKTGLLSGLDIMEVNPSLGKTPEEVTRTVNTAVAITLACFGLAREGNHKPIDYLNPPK
Procedure: (§1) Bacterial cultures were grown with shaking at 37 °C in Luria Broth media, in the presence of ampicillin (100 μg/mL). The wild-type and mutant human liver arginase cDNAs were directionally cloned into the pBluescript II KS(+) expression vector and then expressed in E. coli JM109, following induction with 1 mM isopropyl β-D-thiogalactopyranoside. The bacterial cells were disrupted by sonication on ice (5 × 30 s pulses), centrifuged for 20 min at 12,000× g, and the obtained supernatant was precipitated with ammonium sulfate (60% saturation). The pellet, collected by centrifugation at 12,000× g for 10 min, was re-suspended in buffer 5 mM Tris–HCl (pH 7.5) containing 2 mM MnCl2 and dialyzed for 6 h at 4 °C against the same buffer. After incubation with 5 mM MnCl2 for 10 min at 60 °C, the enzyme variants were purified as previously described. The purity of the enzymes was evaluated by SDS–PAGE stained by Coomassie blue and immunodetection using an anti- rat arginase I antibody.
(§2) The single, double, triple, and chimera variants of human arginase type I were obtained by PCR, using the QuickChange site-directed mutagenesis kit (Stratagene, La Jolla, CA, USA); the plasmid pBluescript II KS(+) containing the human liver arginase cDNA was used as template. To obtain the chimeric species of human arginase type I, serial mutations were made in each loop to be modified, using as template DNA the wild-type arginase gene or the previous done mutation, subcloned in the plasmid pBluescript II KS (+). Specifically, the residues present in the arginase structure were replaced by those corresponding to the agmatinase sequence of E. coli.
(§3) All assays were initiated by adding the enzyme to a previously equilibrated buffer with the substrate in solution (the concentrations of used substrates were between 0.2–3 fold the Km). Urea was determined by a colorimetric method with α-isonitrosopropiophenone. The protein concentrations were determined by the Bradford’s method, with bovine serum albumin as standard. Initial velocity and enzymatic inhibition experiments were performed in duplicate and repeated three times. The inhibitory patterns were initially determined by double reciprocal plots and re-plots of intercepts and slopes versus inhibitor concentrations. […] Velocities are expressed as μmol of urea/10 min.

[2] = target: T2, human arginase type I S137C (Homo sapiens, UniProt P05089, S137C); assay: Kinetic and inhibition studies, S137C mutant
T2 sequence (P05089 1-322 S137C): T1 sequence (P05089 1-322 N139D) with S137C, D139N
Procedure: as §1, §2, §3

[3] = target: T3, type I human arginase D181T/V182E + ins F (Homo sapiens, UniProt P05089, D181E/D181T/INS180T/V182E/V182F); assay: Kinetic and inhibition studies, D181T/V182E + ins F; settings: substrate arginine
T3 sequence (P05089 with tags, fused parts or gaps INS180T/D181E/V182F): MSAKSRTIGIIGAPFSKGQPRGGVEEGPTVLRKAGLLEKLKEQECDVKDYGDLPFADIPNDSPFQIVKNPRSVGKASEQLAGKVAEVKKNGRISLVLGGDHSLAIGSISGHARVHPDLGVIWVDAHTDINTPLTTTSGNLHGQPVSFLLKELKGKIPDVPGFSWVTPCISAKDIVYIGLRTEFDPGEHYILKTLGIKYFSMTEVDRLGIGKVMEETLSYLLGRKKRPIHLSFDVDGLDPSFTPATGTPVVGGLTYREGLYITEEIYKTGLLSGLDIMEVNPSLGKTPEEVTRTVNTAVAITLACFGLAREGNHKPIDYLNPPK
Procedure: as §1, §2, §3

[4] = target: T4, human arginase type I N130D-S137C-N139D (Homo sapiens, UniProt P05089, N130D/N139D/S137C); assay: Kinetic and inhibition studies, triple mutant
T4 sequence (P05089 1-322 N130D/S137C/N139D): T1 sequence (P05089 1-322 N139D) with N130D, S137C
Procedure: as §1, §2
(§4) All assays were initiated by adding the enzyme to a previously equilibrated buffer with the substrate in solution (the concentrations of used substrates were between 0.2–3 fold the Km). Urea was determined by a colorimetric method with α-isonitrosopropiophenone. The protein concentrations were determined by the Bradford’s method, with bovine serum albumin as standard. […]

[5] = target: T5, human arginase type I N130D-S137C (Homo sapiens, UniProt P05089, N130D/S137C); assay: Kinetic and inhibition studies, N130D-S137C mutant
T5 sequence (P05089 1-322 N130D/S137C): T1 sequence (P05089 1-322 N139D) with N130D, S137C, D139N
Procedure: as §1, §2, §4

[6] = substrate = labelled compound, pH 9.5, 2 mM Mn2+

SMILES | kcat ([1]; substrate = labelled compound) [s⁻¹] | Km [1, 6] [mM] | kcat ([2]; substrate = labelled compound) [s⁻¹] | Km [2, 6] [mM] | kcat [3] [s⁻¹] | kcat, times lower than the wild-type arginase [3] [times] | Km ([3]; pH 9.5, 2 mM Mn2+) [mM] | kcat ([4]; substrate = labelled compound) [s⁻¹] | Km [4, 6] [mM] | kcat ([5]; substrate = labelled compound) [s⁻¹] | Km [5, 6] [mM] | Ki ([1]; read-out: Ki^orn) [mM] | Ki ([2]; read-out: Ki^orn) [mM] | Inhibition type [3] | Kis [3] [mM] | Ki ([4]; read-out: Ki^orn) [mM] | Ki ([5]; read-out: Ki^orn) [mM]
N=C(N)NCCC[C@H](N)C(=O)O [Arginine, L-arginine] | 64 | 4.4 | 75 | 3.2 | 8.1 ± 1 | 24 | 20 ± 5 | 4 | 6.9 | 23 | 6.5 |  |  |  |  |  | 
NCCC[C@H](N)C(=O)O [Ornithine, L-ornithine] |  |  |  |  |  |  |  |  |  |  |  | 6.2 | 7.6 | Competitive | 18 ± 6 | 5.4 | 7.1
